How the values were obtained:
[1] = test system: MRSA strain ATCC BAA-1556; experiment: Broth microdilution antibiotic potentiation; assay type: cell-based, Staphylococcus aureus; settings: ATCC BAA-1556
Protocol: (§1) Broth Microdilution Method for Antibiotic Potentiation with MRSA Strains. Bacteria were cultured for 6 hours in CAMHB and sub-cultured to 5×10^5 CFU/mL in CAMHB. Subcultures were aliquoted (4 mL) into culture tubes and then inoculated with compound from 10 mM or 100 mM stock in DMSO to the desired concentration. […]. Bacteria treated with antibiotic alone served as the control. Samples from the secondary culture tubes were then aliquoted (200 μL) into the first row of wells of a 96-well microtiter plate. Rows 2-11 were filled (100 μL) with the remaining 4 mL of bacterial subculture containing the adjuvant. Row 12 was filled (100 μL) with uninoculated media. From row 1, 100 μL was transferred to row two and mixed 5-8 times before being transferred to row 3. This procedure was used to serial dilute the rest of the rows through 10. The microtiter plate was then covered in Press 'n Seal and incubated at 37° C.

MRSA strain AH-1263 = experiment: Broth microdilution antibiotic potentiation; assay type: cell-based, Staphylococcus aureus; settings: AH-1263; for Ampicillin MIC / Ampicillin MIC fold reduction / Cefotaxime MIC / Oxacillin MIC: Ex. 3 compound at 60 μM (18 and 19 at 30 μM)
Protocol: as §1

MRSA strain AH-2204 = experiment: Broth microdilution antibiotic potentiation; assay type: cell-based, Staphylococcus aureus; settings: AH-2204
Protocol: as §1

recombinant PBP4 = experiment: BOCILLIN FL labeling of PBP4, gel electrophoresis and fluorescence detection; assay type: binding; settings: kanamycin 2000 μM or 5000 μM
Protocol: PBP4 BOCILLIN™ FL Binding Competition Assays. The ability of putative PBP4 inhibitors to impact the active site of recombinant PBP4 was assessed using two previously established BOCILLIN™-FL Penicillin (Penicillin V conjugated to BODIPY fluorescent dye) binding assays. First, fluorescence polarization assays were performed as previously described. Briefly, the indicated amount of the putative PBP4 inhibitor or control antibiotic was incubated with 1 μM recombinant B. subtilis PBP4 or S. aureus PBP2a in potassium phosphate buffer (40 mM K2HPO4 and 10 mM KH2PO4) for 1 hour in black 96-well microtiter plates (Corning Life Sciences®, Corning, NY). […] BOCILLIN™ FL fluorescence polarization was measured at (495nm excitation and 545nm emission) in a SpectraMax® M5 multimode plate reader (Molecular Devices®, San Jose, CA). […] Second, gel electrophoresis and fluorescence detection were used to measure BOCILLIN™ FL labeling of PBP4 treated with the known PBP4 inhibitor cefoxitin (positive control), kanamycin (negative control) or 9314848 (test compound). […] BOCILLIN™ FL labeled PBP4 was imaged at λ=365 nm using a BioRad© Gel Doc EZ™ Imaging system and the gel was then subsequently stained with Bio-safe Coomassie Brilliant Blue stain (BioRad©, Hercules, CA, USA) to measure the amount of protein present in each reaction condition and analyzed using NIH-ImageJ software. […]

HEPG2 cells = experiment: MTT cell viability / mammalian cytotoxicity; assay type: cell-based, human; settings: compound at 100 μM; HEPG2 cells approximately 2.5 × 10^5 cells/mL
Protocol: Eukaryotic Toxicity Testing. Two rounds of eukaryotic toxicity testing were performed. Initially hits of interest were evaluated for antifungal activity in high throughput manner. To do so, 10^5 CFU of Saccharomyces cerevisiae YSB1001 cells (10 μL) were inoculated into individual wells of a microtiter plate containing yeast peptone dextrose media (88 μL) and 50 μM of each hit (2 μL). […] More extensive mammalian cytotoxicity testing was performed on the indicated highest priority hits of interest following International Organization for Standardization guidelines. Briefly, human liver epithelial cells (HEPG2) were cultured in Dulbecco's modified Eagle medium (DMEM; Fisher Scientific®) supplemented with 10% heat inactivated fetal bovine serum (FBS; Corning Life Sciences, Corning, NY) and 1% penicillin and streptomycin. Cells were incubated at 37° C. with 5% CO2 in Nunc™ tissue culture flasks (Roskilde, Denmark) until reaching 70% confluency. Cells were removed with 0.25% trypsin (Fisher Scientific®), resuspended in fresh medium, and used to seed approximately 2.5×10^5 mL^−1 cells into individual wells of a 96 well tissue culture microplate (Nunc™) containing 200 μL of fresh medium, and incubated for 24 hours. […] Mixtures were incubated for 20-24 h at 37° C. with 5% CO2, the media was removed and replaced with 100 μL fresh media and 10 μL of 12 mM (3-(4,5-dimethylthiazol-2-yl)-2,5-diphenyltetrazolium bromide (MTT) reagent (Cyquant™ Cell Viability kit; Invitrogen™, Carlsbad, CA) was added to each well. Cells were incubated at 37° C. with 5% CO2 for 2-4 hour, 85 μL of media was removed and the remainder was mixed with 50 μL DMSO and incubated for an additional 10 minutes at 37° C. in the dark. Using a SpectraMax® M5 microplate reader, cell viability was recorded as absorbance at OD540 nm. All compounds were tested in triplicate and cell viability was expressed as a percent viability of treated cells in comparison to mock treated cells. […]

[2] = biological target: recombinant B. subtilis PBP4 (Bacillus subtilis, UniProt P40750); experiment: BOCILLIN FL fluorescence polarization binding competition; settings: compound 50 μM; Ex. 3 series
Protocol: PBP4 BOCILLIN™ FL Binding Competition Assays. The ability of putative PBP4 inhibitors to impact the active site of recombinant PBP4 was assessed using two previously established BOCILLIN™-FL Penicillin (Penicillin V conjugated to BODIPY fluorescent dye) binding assays. First, fluorescence polarization assays were performed as previously described. Briefly, the indicated amount of the putative PBP4 inhibitor or control antibiotic was incubated with 1 μM recombinant B. subtilis PBP4 or S. aureus PBP2a in potassium phosphate buffer (40 mM K2HPO4 and 10 mM KH2PO4) for 1 hour in black 96-well microtiter plates (Corning Life Sciences®, Corning, NY). Following incubation, 1 μM (final concentration) BOCILLIN™ FL penicillin was added, and the mixture was incubated for 30 minutes. BOCILLIN™ FL fluorescence polarization was measured at (495nm excitation and 545nm emission) in a SpectraMax® M5 multimode plate reader (Molecular Devices®, San Jose, CA). All assays were repeated at least 8 times, averaged, and values falling outside of 2 standard deviations were considered outliers. Resulting data was plotted as percentage BOCILLIN™ FL binding inhibition=(T/U)×100; T=FL polarization of ((PBP4+BOCILLIN™ FL)−(PBP4+BOCILLIN™ FL+inhibitor compound)), U=FL polarization of ((PBP4+BOCILLIN™ FL)−(BOCILLIN™ FL)). Second, gel electrophoresis and fluorescence detection were used to measure BOCILLIN™ FL labeling of PBP4 treated with the known PBP4 inhibitor cefoxitin (positive control), kanamycin (negative control) or 9314848 (test compound). Briefly, 1 μM of recombinant PBP4 was mixed with 0, 50, 500, 2000, or 5000 μM 9314848 or control antibiotic in 50 mM phosphate buffer (pH 7.4) and incubated at 37° C. for 30 minutes. Next 40 μM of BOCILLIN™ FL was added to the reaction mixture and incubated for an additional 30 minutes at 37° C. Reactions were stopped by adding 5×SDS-PAGE gel loading dye, heated at 100° C. for 3 minutes and separated by electrophoresis in 12% SDS-PAGE (2 h, 120 Volts). BOCILLIN™ FL labeled PBP4 was imaged at λ=365 nm using a BioRad© Gel Doc EZ™ Imaging system and the gel was then subsequently stained with Bio-safe Coomassie Brilliant Blue stain (BioRad©, Hercules, CA, USA) to measure the amount of protein present in each reaction condition and analyzed using NIH-ImageJ software. The percent BOCILLIN™ FL binding was calculated by first normalizing the protein present in each reaction condition to that of untreated control and subsequently applying each reaction's protein normalization factor to each reaction's fluorescent signal. The percentage BOCILLIN™ FL binding inhibition was then calculated as the normalized band intensity of antibiotic/compound treated sample as compared to control sample (PBP4+BOCILLIN™ FL in the absence of compound).
To more directly evaluate whether 9314848 is likely to affect PBP4 function, the compound's ability to bind recombinant PBP4 was measured using BOCILLIN™ FL fluorescence polarization displacement assays. The premise for the assay is that the fluorescence polarization of the fluorescently labeled β-lactam, penicillin V (BOCILLIN™ FL), will increase upon binding to its cognate target (i.e., PBP4). Further, compounds that bind PBP4 and inhibit its function would impede BOCILLIN™ FL binding thereby allowing assessment of the protein binding affinity of 9314848 using a simple fluorescence reduction assay.

[3] = Staphylococcus aureus, MRSA, read-out: Cefoxitin MIC, no compound (—)
[4] = Ex. 3 compound at 60 μM (18 and 19 at 30 μM)

Sequence of recombinant B. subtilis PBP4 (P40750 22-624): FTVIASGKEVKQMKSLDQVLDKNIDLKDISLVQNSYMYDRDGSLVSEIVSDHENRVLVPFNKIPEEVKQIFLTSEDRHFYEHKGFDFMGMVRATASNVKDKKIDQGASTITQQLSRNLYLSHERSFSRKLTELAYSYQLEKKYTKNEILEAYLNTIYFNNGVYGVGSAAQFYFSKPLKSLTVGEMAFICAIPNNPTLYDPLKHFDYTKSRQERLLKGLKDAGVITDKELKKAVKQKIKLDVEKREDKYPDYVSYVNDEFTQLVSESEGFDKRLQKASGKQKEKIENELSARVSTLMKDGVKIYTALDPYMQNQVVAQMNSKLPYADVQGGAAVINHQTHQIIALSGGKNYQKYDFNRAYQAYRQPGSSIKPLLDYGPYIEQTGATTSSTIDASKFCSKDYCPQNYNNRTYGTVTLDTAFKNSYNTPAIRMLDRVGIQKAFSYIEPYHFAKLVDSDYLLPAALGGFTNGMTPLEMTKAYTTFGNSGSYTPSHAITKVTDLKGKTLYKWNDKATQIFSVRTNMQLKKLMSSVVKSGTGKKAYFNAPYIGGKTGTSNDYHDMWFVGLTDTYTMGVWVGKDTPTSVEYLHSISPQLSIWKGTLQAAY

Structure (SMILES)	MIC ([1]; Staphylococcus aureus, read-out: Cefoxitin MIC, no compound (—)) [µg/mL]	MIC (MRSA strain AH-1263; [3]) [µg/mL]	MIC (MRSA strain AH-2204; [3]) [µg/mL]	Effect of preincubation on BOCILLIN FL labeling of PBP4 (gel) (recombinant PBP4)	Ampicillin MIC [1, 4] [µg/mL]	Cefotaxime MIC [1, 4] [µg/mL]	Cefotaxime MIC fold reduction [1, 4]	Oxacillin MIC [1, 4] [µg/mL]	Oxacillin MIC fold reduction [1, 4]	Ampicillin MIC (MRSA strain AH-1263) [µg/mL]	Ampicillin MIC fold reduction (MRSA strain AH-1263)	Cefotaxime MIC (MRSA strain AH-1263) [µg/mL]	Oxacillin MIC (MRSA strain AH-1263) [µg/mL]	Ampicillin MIC (MRSA strain AH-2204; [4]) [µg/mL]	Cefotaxime MIC (MRSA strain AH-2204; [4]) [µg/mL]	Oxacillin MIC (MRSA strain AH-2204; [4]) [µg/mL]	Oxacillin MIC fold reduction (MRSA strain AH-2204; [4])	Toxicity with HEPG2 Cells (cell viability) (HEPG2 cells) [%]	Percentage Bocillin Displacement (%), PBP4 binding [2] [%]	Cefotaxime MIC fold reduction (MRSA strain AH-2204; [4])
CO[C@@]1(NC(=O)Cc2cccs2)C(=O)N2C(C(=O)O)=C(COC(N)=O)CS[C@@H]21 [Cefoxitin, cefoxitin]	8	4	2	reduced the protein's ability to bind the fluorescent substrate in a dose-dependent manner	–	–	–	–	–	–	–	–	–	–	–	–	–	–	–	–
O=C(Nc1ccc2[nH]c(-c3cc(Cl)cc(Cl)c3)nc2c1)c1ccco1 [Compound 33, N-(2-(3,5-Dichlorophenyl)-1H-benzo[d]imidazol-5-yl)furan-2-carboxamide]	–	–	–	–	16	16	(2)	16	(2)	1	(16)	32	16	2	16	4	(8)	151 ± 11.3	56.5 ± 35.6	–
O=C(Nc1ccc2[nH]c(C3CCCCC3)nc2c1)c1ccco1 [Compound 34, N-(2-Cyclohexyl-1H-benzo[d]imidazol-5-yl)furan-2-carboxamide]	–	–	–	–	16	32	–	32	–	2	(8)	32	16	2	8	8	(4)	97 ± 5.8	60.3 ± 43.8	(2)

From patent US20260124213A1, “STAPHYLOCOCCUS AUREUS PBP4 INHIBITORS AND METHOD OF USE” (UNIVERSITY OF ROCHESTER, priority 2022, published 2026)
